Measured values as given in publication PMC9059924 (RSC Advances, 2019).

Legend:
Type in all cases: cell-based, rat
primary cortical neurons = assay: Viability of normal primary cortical neurons after administration; conditions: 100 μM; for Cell survival rate of primary neurons after administration: normal neurons, control 1.00, mean ± SE
[1] = test system: primary cortical neurons (OGD model); assay: Cell viability of primary cortical neurons in oxygen glucose deprivation; conditions: for Improvement of survival rate of neuron (OGD 12 h), in words: P < 0.05 vs model; for Sample in 100 μM: cytotoxic at this concentration: footnote c; for Neuroprotective activity of BA compounds in OGD model, in words: text SAR; for Cell survival rate of primary neurons (OGD 12 h), Edaravone: positive drug 100 μM
[2] = test system: primary cortical neurons (OGD model); assay: Morphology of OGD neurons under inverted microscope; conditions: OGD 12 h

Molecule	Cell survival rate of primary neurons after administration (primary cortical neurons) [%]	Sample in 100 μM: cytotoxic at this concentration ([1]; BA compounds)	also measured
CC1(C)C=Cc2cc(NC(=O)/C=C/c3ccc4c(c3)OCO4)ccc2O1 [BA-05, (E)-N-(2,2-Dimethyl-2H-1-benzopyran-6-yl)-3-(1,3-benzodioxole-5-yl)acrylamide]	0.85 ± 0.037		
CC1(C)C=Cc2cc(NC(=O)/C=C/c3cccc4ccccc34)ccc2O1 [BA-08, (E)-N-(2,2-Dimethyl-2H-1-benzopyran-6-yl)-3-(naphthalen-1-yl)acrylamide]	0.73 ± 0.025	— ^c	Improvement of survival rate of neuron (OGD 12 h), in words ([1]; 1 μM): significantly improve the survival rate of neuron
CC1(C)C=Cc2cc(NC(=O)/C=C/c3cccnc3)ccc2O1 [BA-09, (E)-N-(2,2-Dimethyl-2H-1-benzopyran-6-yl)-3-(pyridin-3-yl)acrylamide]	0.49 ± 0.047	— ^c	Improvement of survival rate of neuron (OGD 12 h), in words ([1]; 1 μM): significantly improve the survival rate of neuron; Neuroprotective activity of BA compounds in OGD model, in words ([1]; OGD 12 h): maintained the same biological activity
COc1ccc(/C=C/C(=O)Nc2ccc3c(c2)C=CC(C)(C)O3)cc1 [BA-06, (E)-N-(2,2-Dimethyl-2H-1-benzopyran-6-yl)-3-(4-methoxyphenyl)acrylamide]	0.86 ± 0.018		
COc1ccc(N2CCN(C(=O)/C=C/c3ccc4c(c3)C=CC(C)(C)O4)CC2)cc1 [BN-06, (E)-3-(2,2-Dimethyl-2H-1-benzopyran-6-yl)-1-(4-(4-methoxyphenyl)piperazin-1-yl)prop-2-en-1-one]	0.91 ± 0.028		
COc1ccc(NC(=O)/C=C/c2ccc3c(c2)C=CC(C)(C)O3)cc1 [BN-02, (E)-3-(2,2-Dimethyl-2H-1-benzopyran-6-yl)-N-(4-methoxyphenyl)acrylamide]	0.93 ± 0.0080		
CC1(C)C=Cc2cc(NC(=O)/C=C/c3ccco3)ccc2O1 [BA-10, (E)-N-(2,2-Dimethyl-2H-1-benzopyran-6-yl)-3-(furan-2-yl)acrylamide]	0.84 ± 0.026		Neuroprotective activity of BA compounds in OGD model, in words ([1]; OGD 12 h): lost neuroprotective effect
CC1(C)C=Cc2cc(/C=C/C(=O)Nc3ccccc3)ccc2O1 [BN-01, (E)-3-(2,2-Dimethyl-2H-1-benzopyran-6-yl)-N-phenylacrylamide]	0.85 ± 0.038		
CC1(C)C=Cc2cc(/C=C/C(=O)N3CCN(c4ccc(O)cc4)CC3)ccc2O1 [BN-07, (E)-3-(2,2-Dimethyl-2H-1-benzopyran-6-yl)-1-(4-(4-hydroxyphenyl)piperazin-1-yl)prop-2-en-1-one]	0.96 ± 0.0063		Morphology of neurons induced by OGD, in words [2]: significantly improved the morphology of neurons; Neuroprotective effect of BN compounds on survival of OGD neurons, in words ([1]; OGD 12 h, compared with model group / edaravone): good efficacy in neurons of OGD model
CC1(C)C=Cc2cc(NC(=O)/C=C/c3cccs3)ccc2O1 [BA-11, (E)-N-(2,2-Dimethyl-2H-1-benzopyran-6-yl)-3-(thiophen-2-yl)acrylamide]	0.89 ± 0.054		Improvement of survival rate of neuron (OGD 12 h), in words ([1]; 1 μM): significantly improve the survival rate of neuron; Neuroprotective activity of BA compounds in OGD model, in words ([1]; OGD 12 h): maintained the same biological activity
COc1ccccc1NC(=O)/C=C/c1ccc2c(c1)C=CC(C)(C)O2 [BN-04, (E)-3-(2,2-Dimethyl-2H-1-benzopyran-6-yl)-N-(2-methoxyphenyl)acrylamide]	0.88 ± 0.038		
CC1(C)C=Cc2cc(NC(=O)/C=C/c3ccc(O)c(O)c3)ccc2O1 [BA-04, (E)-N-(2,2-Dimethyl-2H-1-benzopyran-6-yl)-3-(3,4-dihydroxyphenyl)acrylamide]	0.56 ± 0.014	— ^c	Cytotoxicity to normal neurons (reduced cell survival rate), in words (primary cortical neurons): cytotoxic; Neuroprotective activity of BA compounds in OGD model, in words ([1]; OGD 12 h): the activity was decreased or disappeared
COc1ccc(NC(=O)CC(Nc2ccc(OC)cc2)c2ccc3c(c2)C=CC(C)(C)O3)cc1 (stereo not drawn) [BN-09, 3-(2,2-Dimethyl-2H-1-benzopyran-6-yl)-N-(4-methoxyphenyl)-3-((4-methoxyphenyl)amino)propanamide]	0.80 ± 0.047		Sample in 100 μM: cytotoxic at this concentration ([1]; BN compounds): — ^c
CC1(C)C=Cc2cc(/C=C/C(=O)Oc3ccccc3)ccc2O1 [BN-05, (E)-3-(2,2-Dimethyl-2H-1-benzopyran-6-yl)-acrylate-phenyl ester]	0.86 ± 0.023		
CC1(C)C=Cc2cc(NC(=O)/C=C/c3ccc(O)cc3)ccc2O1 [BA-01, (E)-N-(2,2-Dimethyl-2H-1-benzopyran-6-yl)-3-(4-hydroxyphenyl)acrylamide]	0.75 ± 0.021	— ^c	Cytotoxicity to normal neurons (reduced cell survival rate), in words (primary cortical neurons): cytotoxic; Neuroprotective activity of BA compounds in OGD model, in words ([1]; OGD 12 h): the activity was decreased or disappeared
COc1cc(/C=C/C(=O)Nc2ccc3c(c2)C=CC(C)(C)O3)ccc1O [BA-02, (E)-N-(2,2-Dimethyl-2H-1-benzopyran-6-yl)-3-(4-hydroxy-3-methoxyphenyl)acrylamide]	0.76 ± 0.025	— ^c	Cytotoxicity to normal neurons (reduced cell survival rate), in words (primary cortical neurons): cytotoxic
COc1cccc(NC(=O)/C=C/c2ccc3c(c2)C=CC(C)(C)O3)c1 [BN-03, (E)-3-(2,2-Dimethyl-2H-1-benzopyran-6-yl)-N-(3-methoxyphenyl)acrylamide]	0.89 ± 0.02		
5-methyl-2-phenyl-1,2-dihydropyrazol-3-one [Edaravone, reference compound]			Cell survival rate of primary neurons (OGD 12 h), Edaravone ([1]; BA table, model 0.49 ± 0.094, mean ± SE): 0.54 ± 0.0069 %; Cell survival rate of primary neurons (OGD 12 h), Edaravone ([1]; BN table, model 0.41 ± 0.014, mean ± SE): 0.56 ± 0.015 %
3-(2,2-Dimethyl-2H-1-benzopyran-6-yl)-N-(3-methoxyphenyl)-3-((3-methoxyphenyl)amino)propenamide [BN-10]	0.81 ± 0.058		Cell survival rate of primary neurons (OGD 12 h), Sample in 1 μM ([1]; BN compounds, 1 μM, model 0.41 ± 0.014, control 1.00, mean ± SE): 0.81 ± 0.0090 %; Cell survival rate of primary neurons (OGD 12 h), Sample in 30 μM ([1]; BN compounds, 30 μM, model 0.41 ± 0.014, control 1.00, mean ± SE): 0.77 ± 0.0035 %; Sample in 100 μM: cytotoxic at this concentration ([1]; BN compounds): — ^c
CC1(C)C=Cc2cc(C(CC(=O)Nc3ccccc3)Nc3ccccc3)ccc2O1 (stereo not drawn) [BN-08, 3-(2,2-Dimethyl-2H-1-benzopyran-6-yl)-N-phenyl-3-(phenylamino)propanamide]	0.99 ± 0.019		
COc1ccc(/C=C/C(=O)Nc2ccc3c(c2)C=CC(C)(C)O3)cc1O [BA-03, (E)-N-(2,2-Dimethyl-2H-1-benzopyran-6-yl)-3-(3-hydroxy-4-methoxyphenyl)acrylamide]	0.77 ± 0.012	— ^c	Cytotoxicity to normal neurons (reduced cell survival rate), in words (primary cortical neurons): cytotoxic; Improvement of survival rate of neuron (OGD 12 h), in words ([1]; 1 μM): significantly improve the survival rate of neuron
CC1(C)C=Cc2cc(NC(=O)/C=C/c3ccccc3)ccc2O1 [BA-07, (E)-N-(2,2-Dimethyl-2H-1-benzopyran-6-yl)-3-phenylacrylamide]	0.78 ± 0.046	— ^c	Cytotoxicity to normal neurons (reduced cell survival rate), in words (primary cortical neurons): cytotoxic; Improvement of survival rate of neuron (OGD 12 h), in words ([1]; 1 μM): significantly improve the survival rate of neuron
